Data reported in US11504385B2, “Proteolysis targeting chimeric molecule, preparation method, and application” (CHINA PHARMACEUTICAL UNIVERSITY, priority 2019, dated 2022).

How the values were obtained:
Format in all cases: cell-based
MCF-7 breast cancer = assay: Cell viability test (CellTiter-Glo), MCF-7; settings: non-BCR-ABL dependent tumor cell line
Method: (§1) The operation method of the K562 cell viability test is as follows:
(§2) 50 μL of K562, MCF-7, HCT116 and A549 cell suspensions were added to a 96-well plate and incubated for 12 hours. 10 μL of compound was added to the well and incubated for 48 hours. Operation was performed according to a CellTiter-Glo® luminescent cell viability assay kit (Promega). Nonlinear regression analysis data in GraphPad Prism 6 was used.

ABL = target: T1, ABL (Homo sapiens, UniProt P00519); assay: Immunoblotting, degradation of ABL protein in K562 cells
T1 construct: degradation effect of the compound 4C on c-ABL and BCR-ABL proteins in K562 cells; endogenous in cells; host or cells: K562
T1 sequence (P00519 whole entry): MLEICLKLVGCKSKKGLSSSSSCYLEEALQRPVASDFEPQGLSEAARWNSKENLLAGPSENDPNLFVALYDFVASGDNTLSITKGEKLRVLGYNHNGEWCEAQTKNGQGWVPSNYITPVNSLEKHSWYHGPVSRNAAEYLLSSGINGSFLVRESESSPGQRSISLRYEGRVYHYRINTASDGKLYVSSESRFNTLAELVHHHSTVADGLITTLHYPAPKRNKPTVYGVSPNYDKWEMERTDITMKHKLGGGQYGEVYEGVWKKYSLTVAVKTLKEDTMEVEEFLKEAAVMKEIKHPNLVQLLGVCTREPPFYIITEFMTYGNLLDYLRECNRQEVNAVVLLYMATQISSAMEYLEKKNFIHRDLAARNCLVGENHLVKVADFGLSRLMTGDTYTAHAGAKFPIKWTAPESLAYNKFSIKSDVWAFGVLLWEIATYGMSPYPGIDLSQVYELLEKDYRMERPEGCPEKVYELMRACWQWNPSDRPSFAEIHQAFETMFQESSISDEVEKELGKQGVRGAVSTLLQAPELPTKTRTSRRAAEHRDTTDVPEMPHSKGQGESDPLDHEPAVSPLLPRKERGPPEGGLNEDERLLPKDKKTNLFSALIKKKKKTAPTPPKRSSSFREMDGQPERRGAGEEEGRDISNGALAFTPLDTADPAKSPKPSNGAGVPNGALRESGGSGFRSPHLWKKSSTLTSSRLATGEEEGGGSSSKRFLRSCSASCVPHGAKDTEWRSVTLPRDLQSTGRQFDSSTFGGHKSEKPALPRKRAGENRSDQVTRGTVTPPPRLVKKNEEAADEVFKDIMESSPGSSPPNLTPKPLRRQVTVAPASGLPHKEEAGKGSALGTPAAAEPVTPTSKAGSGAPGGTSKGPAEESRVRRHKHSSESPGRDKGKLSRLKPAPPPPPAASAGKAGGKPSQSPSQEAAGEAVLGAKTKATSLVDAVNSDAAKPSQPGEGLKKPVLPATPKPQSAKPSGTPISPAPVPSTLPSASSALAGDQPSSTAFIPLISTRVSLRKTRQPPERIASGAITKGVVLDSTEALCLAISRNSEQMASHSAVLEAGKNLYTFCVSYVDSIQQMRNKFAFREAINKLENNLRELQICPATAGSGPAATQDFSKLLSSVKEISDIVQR
Method: (§3) Initially, researchers synthesized a 2C compound (FIG. 2A), which is a small molecule with the shortest joining chain (n=1). By using BCR-ABL and CRBN positive K562 cell lines, degradation of ABL and BCR-ABL proteins in the cells under the action of the compound was tested by immunoblotting. […] Then, the researchers tried to extend the joining chain (increasing the value of n).
(§4) In order to test the degradation effect of the compound 4C on c-ABL and BCR-ABL proteins in K562 cells, the researchers performed an immunoblotting experiment. […] In order to exclude the possibility that the compound 4C affected the ABL gene to generate false positive expression, the researchers used RT-qPCR in K562 cells to study the expression of the ABL gene.
The operation method of the immunoblotting experiment is as follows:
K562 cells after administration were incubated for 24 hours.
(§5) The medium was aspirated from the culture; the cells were washed with 1*PBS; and the cells were aspirated.
(§6) A weak RIPA lysate (100 μL) was added to lyse the cells for 40 min.
(§7) The sample was centrifuged at 13000 rpm, 4° C. for 15 min; 80 μl of supernatant was taken and added to 20 μl of loading buffer; the reaction solution was heated at 100° C. for 8 minutes; and the sample was placed on ice and cooled.
(§8) […] of sample was loaded on 10% SDS-PAGE gel. The sample was transferred to a PVDF membrane by a wet process.
(§9) A membrane was placed in 25 ml of blocking buffer and blocked at room temperature for 1 hour.
(§10) The membrane and the primary antibody (according to the appropriate dilution and diluent recommended in the product description) were placed in 10 ml of primary antibody dilution buffer, and incubated overnight at 4° C. and gently shaken from time to time.
(§11) Anti-rabbit IgG, HRP-linked Antibody (#7074, in a ratio of 1:2000) and anti-biotin, HRP-linked Antibody (#7075, in a ratio of 1:1000-1:3000) are diluted with 10 ml of blocking buffer to detect biotinylated protein standards. The membrane was incubated with the diluent, and gently shaken and incubated at room temperature for 1 hour.
(§12) A developer solution and the membrane were incubated together for 1 minute, the excess solution was discarded (the membrane remained moist) and the membrane was exposed.
(§13) Next, we tested the difference in the activity of different configurations of compound 4C in degradation of ABL and BCR-ABL proteins. […] The operation method of the immunoblotting experiment is the same as above.

K562 cells = assay: Time-effect experiment, apoptosis of K562 cells; settings: 250 nM, after 48 hours
HEK293T = assay: Cell viability test, HEK293T; settings: non-BCR-ABL dependent cell line
A549 = assay: Cell viability test (CellTiter-Glo), A549; settings: A549, non-BCR-ABL dependent tumor cell line
Method: as §1, §2

HCT116 = assay: Cell viability test (CellTiter-Glo), HCT116; settings: HCT116, non-BCR-ABL dependent tumor cell line
Method: as §1, §2

BCR-ABL fusion protein = target: T2, BCR-ABL fusion protein (Homo sapiens, UniProt P00519+P11274+Q96SW2, E27K); assay: Immunoblotting, degradation of BCR-ABL protein in K562 cells
T2 construct: By using BCR-ABL and CRBN positive K562 cell lines; endogenous in cells; host or cells: K562
Method: as §3, §4
The operation method of the immunoblotting experiment is as follows: […]
as §5, §6, §7, §8, §9, §10, §11, §12, §13

time at which ABL reached the maximum degradation (ABL; 250 nM): 32 h
ABL level, time-effect (ABL; 250 nM, 4 hours of incubation): significantly reduced
c-ABL level, time-effect (ABL; 250 nM, after 10 hours): significantly degraded
ABL protein degraded, dose-effect (ABL; 500 nM, 24 hours of incubation): almost all
inhibition of expression of BCR-ABL and/or CRBN protein (BCR-ABL fusion protein; BCR-ABL and/or CRBN positive leukemia K562 cells, to varying degrees): can inhibit the expression
activity in degrading the BCR-ABL fusion protein, compared among the PROTAC molecules (BCR-ABL fusion protein; K562 cells): best activity
degradation of BCR-ABL fusion protein, dose-effect (BCR-ABL fusion protein; K562 cells, 25 nM, 24 hours of incubation): slightly degrade
time at which BCR-ABL reached the maximum degradation (BCR-ABL fusion protein; K562 cells, 250 nM): 32 h
BCR-ABL level, time-effect (BCR-ABL fusion protein; K562 cells, 250 nM, after 4 hours): slight decrease
BCR-ABL level, time-effect (BCR-ABL fusion protein; K562 cells, 250 nM, after 10 hours): significantly degraded
BCR-ABL level, time-effect (BCR-ABL fusion protein; K562 cells, 250 nM, after 10 hours, listed as 4C-trans): significantly reduced
BCR-ABL fusion protein degraded, time-effect (BCR-ABL fusion protein; K562 cells, 250 nM, after 32 hours): more than 90%
BCR-ABL degraded, dose-effect (BCR-ABL fusion protein; K562 cells, 500 nM, 24 hours of incubation): more than 80%
Structure (SMILES): Cc1nc(Nc2ncc(C(=O)Nc3c(C)cccc3Cl)s2)cc(N2CCN(CCCCOc3ccc(/N=N/c4ccc(C(=O)Nc5cccc6c5CN(C5CCC(=O)NC5=O)C6=O)cc4)cc3)CC2)n1 (stereo not drawn) [Compound 4C, (E)-N-(2-chloro-6-methylphenyl)-2-((6-(4-(4-(4-((4-((2-(2,6-dioxopiperidin-3-yl)-1-oxoisoindolin-4-yl)carbamoyl)phenyl)diazenyl)phenoxy)butyl)piperazin-1-yl)-2-methylpyrimidin-4-yl)amino)thiazole-5-carboxamide]
effect on cell viability (MCF-7 breast cancer): hardly affects
apoptosis of K562 cells (K562 cells): obvious apoptosis
effect on cell viability (HEK293T): hardly affects
effect on cell viability (A549): hardly affects
effect on cell viability (HCT116): hardly affects
